According to patent US20230391768A2, “IMIDAZOPYRIDINE DERIVATIVES AND AZA-IMIDAZOPYRIDINE DERIVATIVES AS JANUS KINASE 2 INHIBITORS AND USES THEREOF” (Dana-Farber Cancer Institute, Inc., priority 2018, published 2023):

Key:
Experiment in all cases: KINOMEscan
Type in all cases: binding
Conditions in all cases: read-out: percent of control
CSNK1G1 = CSNK1G1 (Homo sapiens (Human), UniProt Q9HCP0)
Description: (§1) In vitro profiling of Compound I-2 (1 μM) was performed using the DiscoveRx KINOMEscan® platform.

TAOK3 = TAOK3 (Homo sapiens (Human), UniProt Q9H2K8)
Description: as §1

SIK = SIK (Homo sapiens (Human), UniProt P57059)
Description: as §1

VPS34 = VPS34 (Homo sapiens (Human), UniProt Q8NEB9)
Description: as §1

SgK110 = SgK110 (Homo sapiens (Human), UniProt P0C264)
Description: as §1

CIT = CIT (Homo sapiens (Human), UniProt O14578)
Description: as §1

NEK6 = NEK6 (Homo sapiens (Human), UniProt Q9HC98)
Description: as §1

BRSK1 = BRSK1 (Homo sapiens (Human), UniProt Q8TDC3)
BRSK1, sequence (Q8TDC3 whole entry): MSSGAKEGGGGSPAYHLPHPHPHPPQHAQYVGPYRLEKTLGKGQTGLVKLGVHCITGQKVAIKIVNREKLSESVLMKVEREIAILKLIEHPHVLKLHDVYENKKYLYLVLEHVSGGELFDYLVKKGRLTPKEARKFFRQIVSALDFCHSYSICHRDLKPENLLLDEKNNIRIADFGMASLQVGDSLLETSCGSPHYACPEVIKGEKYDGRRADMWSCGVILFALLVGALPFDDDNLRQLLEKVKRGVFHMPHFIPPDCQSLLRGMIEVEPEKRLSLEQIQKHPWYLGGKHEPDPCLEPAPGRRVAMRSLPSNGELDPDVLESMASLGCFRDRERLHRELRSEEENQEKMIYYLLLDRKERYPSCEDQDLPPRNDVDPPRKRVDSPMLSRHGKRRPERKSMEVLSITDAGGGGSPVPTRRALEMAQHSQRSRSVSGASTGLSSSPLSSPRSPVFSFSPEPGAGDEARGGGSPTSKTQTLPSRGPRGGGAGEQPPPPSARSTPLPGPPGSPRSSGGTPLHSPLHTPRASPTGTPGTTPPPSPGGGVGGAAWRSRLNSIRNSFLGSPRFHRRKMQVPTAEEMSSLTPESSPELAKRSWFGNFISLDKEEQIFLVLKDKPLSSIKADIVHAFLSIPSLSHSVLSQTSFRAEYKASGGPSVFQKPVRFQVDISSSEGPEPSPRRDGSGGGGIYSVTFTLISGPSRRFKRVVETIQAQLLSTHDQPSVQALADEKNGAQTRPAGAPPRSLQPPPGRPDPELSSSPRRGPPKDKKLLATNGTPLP
Description: as §1

TIE1 = TIE1 (Homo sapiens (Human), UniProt P35590)
Description: as §1

ERBB2 = ERBB2 (Homo sapiens (Human), UniProt P04626)
Description: as §1

ALK(L1196M) = ALK(L1196M) (Homo sapiens (Human), UniProt Q9UM73, L1196M)
Description: as §1

TIE2 = TIE2 (Homo sapiens (Human), UniProt Q02763)
Description: as §1

EGFR(E746-A750del) = EGFR(E746-A750del) (Homo sapiens (Human), UniProt P00533, DEL746-750)
Description: as §1

LIMK2 = LIMK2 (Homo sapiens (Human), UniProt P53671)
LIMK2, sequence (P53671 whole entry): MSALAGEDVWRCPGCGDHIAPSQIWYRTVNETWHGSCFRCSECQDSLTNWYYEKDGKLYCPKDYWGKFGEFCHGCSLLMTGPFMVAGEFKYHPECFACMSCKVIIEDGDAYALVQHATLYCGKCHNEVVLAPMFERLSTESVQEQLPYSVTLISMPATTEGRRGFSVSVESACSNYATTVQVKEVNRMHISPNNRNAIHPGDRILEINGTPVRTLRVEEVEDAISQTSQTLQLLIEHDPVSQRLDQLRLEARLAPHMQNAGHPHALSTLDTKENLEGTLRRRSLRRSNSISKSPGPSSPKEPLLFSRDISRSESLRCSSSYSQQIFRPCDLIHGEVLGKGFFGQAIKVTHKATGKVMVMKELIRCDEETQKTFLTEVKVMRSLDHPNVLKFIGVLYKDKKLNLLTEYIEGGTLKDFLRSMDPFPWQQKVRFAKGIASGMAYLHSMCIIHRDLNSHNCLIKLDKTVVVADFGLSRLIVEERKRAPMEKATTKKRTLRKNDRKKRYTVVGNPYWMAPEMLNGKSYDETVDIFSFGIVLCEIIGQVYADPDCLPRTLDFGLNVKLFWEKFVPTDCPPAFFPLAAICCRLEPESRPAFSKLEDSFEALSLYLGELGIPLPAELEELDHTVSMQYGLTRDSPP
Description: as §1

PRKD3 = PRKD3 (Homo sapiens (Human), UniProt O94806)
PRKD3, sequence (O94806 whole entry): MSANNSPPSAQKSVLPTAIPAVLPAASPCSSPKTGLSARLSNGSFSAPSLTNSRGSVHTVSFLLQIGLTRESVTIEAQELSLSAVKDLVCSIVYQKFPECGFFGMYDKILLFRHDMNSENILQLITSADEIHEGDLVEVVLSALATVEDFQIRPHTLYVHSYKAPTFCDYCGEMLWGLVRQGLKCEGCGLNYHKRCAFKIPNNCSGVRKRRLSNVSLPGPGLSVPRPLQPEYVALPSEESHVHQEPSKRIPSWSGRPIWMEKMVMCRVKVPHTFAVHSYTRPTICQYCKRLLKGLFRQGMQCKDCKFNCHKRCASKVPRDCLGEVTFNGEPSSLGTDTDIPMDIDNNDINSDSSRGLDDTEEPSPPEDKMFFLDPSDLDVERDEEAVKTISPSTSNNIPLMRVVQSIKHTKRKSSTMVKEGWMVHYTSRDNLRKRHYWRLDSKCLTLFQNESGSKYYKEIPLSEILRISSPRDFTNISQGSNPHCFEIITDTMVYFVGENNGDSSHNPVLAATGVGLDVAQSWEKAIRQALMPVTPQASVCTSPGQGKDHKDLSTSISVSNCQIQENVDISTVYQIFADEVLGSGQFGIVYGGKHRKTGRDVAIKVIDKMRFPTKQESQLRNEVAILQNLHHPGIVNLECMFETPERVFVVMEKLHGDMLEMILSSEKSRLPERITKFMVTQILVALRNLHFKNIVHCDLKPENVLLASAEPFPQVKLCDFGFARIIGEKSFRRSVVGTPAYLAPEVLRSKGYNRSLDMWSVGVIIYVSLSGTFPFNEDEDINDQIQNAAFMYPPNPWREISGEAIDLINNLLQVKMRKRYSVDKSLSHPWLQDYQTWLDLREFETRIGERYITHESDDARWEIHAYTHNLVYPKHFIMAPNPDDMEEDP
Description: as §1

WNK2 = WNK2 (Homo sapiens (Human), UniProt Q9Y3S1)
Description: as §1

ANKK1 = ANKK1 (Homo sapiens (Human), UniProt Q8NFD2)
ANKK1, sequence (Q8NFD2 whole entry): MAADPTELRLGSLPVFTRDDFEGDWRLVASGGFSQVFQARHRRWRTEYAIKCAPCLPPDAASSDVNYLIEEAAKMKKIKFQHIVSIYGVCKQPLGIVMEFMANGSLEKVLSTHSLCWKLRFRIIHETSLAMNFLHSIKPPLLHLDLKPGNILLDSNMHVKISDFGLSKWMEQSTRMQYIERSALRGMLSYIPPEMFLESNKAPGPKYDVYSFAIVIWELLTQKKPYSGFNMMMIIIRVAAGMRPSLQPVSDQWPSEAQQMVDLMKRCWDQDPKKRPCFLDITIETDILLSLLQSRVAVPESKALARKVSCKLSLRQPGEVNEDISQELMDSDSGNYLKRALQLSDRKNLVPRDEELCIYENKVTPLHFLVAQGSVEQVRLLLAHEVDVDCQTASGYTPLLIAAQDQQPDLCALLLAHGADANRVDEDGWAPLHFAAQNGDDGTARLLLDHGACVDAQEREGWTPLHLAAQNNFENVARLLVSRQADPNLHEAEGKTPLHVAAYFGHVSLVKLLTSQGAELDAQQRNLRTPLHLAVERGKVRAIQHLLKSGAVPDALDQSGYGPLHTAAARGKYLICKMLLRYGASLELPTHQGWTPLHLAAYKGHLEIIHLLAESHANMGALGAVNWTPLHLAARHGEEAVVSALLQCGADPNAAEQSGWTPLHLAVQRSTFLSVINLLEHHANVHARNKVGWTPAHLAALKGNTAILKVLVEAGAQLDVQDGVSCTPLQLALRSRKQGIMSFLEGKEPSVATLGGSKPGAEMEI
Description: as §1

MKNK1 = MKNK1 (Homo sapiens (Human), UniProt Q9BUB5)
Description: as §1

CAMK2G = CAMK2G (Homo sapiens (Human), UniProt Q13555)
Description: as §1

TSSK1B = TSSK1B (Homo sapiens (Human), UniProt Q9BXA7)
TSSK1B, sequence (Q9BXA7 whole entry): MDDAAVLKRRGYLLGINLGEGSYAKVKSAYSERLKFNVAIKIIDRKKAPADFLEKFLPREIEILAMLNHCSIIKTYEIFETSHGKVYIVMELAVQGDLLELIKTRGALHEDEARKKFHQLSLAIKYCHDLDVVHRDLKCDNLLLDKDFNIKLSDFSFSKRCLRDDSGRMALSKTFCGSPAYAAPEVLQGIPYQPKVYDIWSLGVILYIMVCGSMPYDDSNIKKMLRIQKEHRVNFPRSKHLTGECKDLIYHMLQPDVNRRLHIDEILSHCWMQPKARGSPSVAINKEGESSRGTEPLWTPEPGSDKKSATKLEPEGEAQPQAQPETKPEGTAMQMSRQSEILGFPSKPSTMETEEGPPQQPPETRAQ
Description: as §1

BMPR1B = BMPR1B (Homo sapiens (Human), UniProt O00238)
Description: as §1

FGFR1 = FGFR1 (Homo sapiens (Human), UniProt P11362)
Description: as §1

AURKA = AURKA (Homo sapiens (Human), UniProt O14965)
Description: as §1

[1] = molecular target: ABL1(E255K)-phosphorylated (Homo sapiens (Human), UniProt P00519, E255K)
Description: as §1

CSF1R = CSF1R (Homo sapiens (Human), UniProt P07333)
Description: as §1

MKNK2 = MKNK2 (Homo sapiens (Human), UniProt Q9HBH9)
Description: as §1

ULK2 = ULK2 (Homo sapiens (Human), UniProt Q8IYT8)
ULK2, sequence (Q8IYT8 whole entry): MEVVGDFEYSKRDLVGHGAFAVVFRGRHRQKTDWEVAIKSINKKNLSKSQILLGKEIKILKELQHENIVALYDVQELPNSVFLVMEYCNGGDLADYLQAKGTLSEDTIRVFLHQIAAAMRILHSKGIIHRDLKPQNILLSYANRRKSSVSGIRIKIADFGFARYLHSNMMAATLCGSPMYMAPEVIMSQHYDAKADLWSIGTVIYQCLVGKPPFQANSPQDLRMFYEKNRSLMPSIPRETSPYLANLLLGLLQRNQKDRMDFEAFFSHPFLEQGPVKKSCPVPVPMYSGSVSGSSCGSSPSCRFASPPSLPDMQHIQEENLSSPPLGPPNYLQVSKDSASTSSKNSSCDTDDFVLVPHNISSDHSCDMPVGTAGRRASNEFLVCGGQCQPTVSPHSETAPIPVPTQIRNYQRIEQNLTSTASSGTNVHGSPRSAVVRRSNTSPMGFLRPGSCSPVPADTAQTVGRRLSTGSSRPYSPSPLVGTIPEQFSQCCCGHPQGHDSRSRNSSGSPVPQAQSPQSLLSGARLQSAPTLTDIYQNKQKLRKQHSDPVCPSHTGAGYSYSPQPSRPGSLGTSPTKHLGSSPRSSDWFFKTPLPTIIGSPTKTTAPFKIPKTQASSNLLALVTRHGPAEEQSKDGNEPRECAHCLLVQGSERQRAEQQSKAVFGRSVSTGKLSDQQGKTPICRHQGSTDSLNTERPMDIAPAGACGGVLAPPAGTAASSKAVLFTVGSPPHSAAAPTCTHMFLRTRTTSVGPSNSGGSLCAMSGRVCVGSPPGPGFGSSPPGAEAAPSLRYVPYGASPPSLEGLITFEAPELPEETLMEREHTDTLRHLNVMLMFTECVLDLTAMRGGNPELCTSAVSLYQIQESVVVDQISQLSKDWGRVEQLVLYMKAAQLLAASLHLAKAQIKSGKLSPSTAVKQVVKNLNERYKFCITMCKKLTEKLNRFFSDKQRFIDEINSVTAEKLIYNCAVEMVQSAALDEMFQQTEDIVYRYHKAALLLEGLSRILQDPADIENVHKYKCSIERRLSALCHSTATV
Description: as §1

LYN = LYN (Homo sapiens (Human), UniProt P07948)
Description: as §1

PAK6 = PAK6 (Homo sapiens (Human), UniProt Q9NQU5)
Description: as §1

ABL1-phosphorylated = ABL1-phosphorylated (Homo sapiens (Human), UniProt P00519)
Description: as §1

MTOR = MTOR (Homo sapiens (Human), UniProt P42345)
Description: as §1

STK36 = STK36 (Homo sapiens (Human), UniProt Q9NRP7)
Description: as §1

PIK3CG = PIK3CG (Homo sapiens (Human), UniProt P48736)
Description: as §1

TAOK2 = TAOK2 (Homo sapiens (Human), UniProt Q9UL54)
Description: as §1

PDGFRB = PDGFRB (Homo sapiens (Human), UniProt P09619)
Description: as §1

MARK4 = MARK4 (Homo sapiens (Human), UniProt Q96L34)
Description: as §1

BMPR1A = BMPR1A (Homo sapiens (Human), UniProt P36894)
Description: as §1

PIK3CA(1800L) = PIK3CA(1800L) (Homo sapiens (Human), UniProt P42336, I800L)
Description: as §1

[2] = molecular target: JAK1 (JH1domain-catalytic) (Homo sapiens (Human), UniProt P23458)
JAK1 (JH1domain-catalytic), sequence (P23458 875-1153): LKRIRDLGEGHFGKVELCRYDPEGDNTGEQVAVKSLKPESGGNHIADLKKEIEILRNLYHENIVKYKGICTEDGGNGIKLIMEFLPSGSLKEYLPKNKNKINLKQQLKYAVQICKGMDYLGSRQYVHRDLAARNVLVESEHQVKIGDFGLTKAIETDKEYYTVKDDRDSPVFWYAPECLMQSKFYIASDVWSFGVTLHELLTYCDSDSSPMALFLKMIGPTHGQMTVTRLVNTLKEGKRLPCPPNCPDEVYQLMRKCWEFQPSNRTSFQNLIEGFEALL
Description: as §1

SMILES: CCN1CCN(Cc2cc(NC(=O)c3ccc(C)c(-c4ccc5nc(NC(=O)C6CC6)cn5n4)c3)cc(C(F)(F)F)c2)CC1 [Compound I-2, 3-(2-(cyclopropanecarboxamido)imidazo[1,2-b]pyridazin-6-yl)-N-(3-((4-ethylpiperazin-1-yl)methyl)-5-(trifluoromethyl)phenyl)-4-methylbenzamide]
- remaining binding at 1 µM (CSNK1G1): 100%
- remaining binding at 1 µM (TAOK3): 0.2%
- remaining binding at 1 µM (SIK): 100%
- remaining binding at 1 µM (VPS34): 91%
- remaining binding at 1 µM (SgK110): 75%
- remaining binding at 1 µM (CIT): 0.1%
- remaining binding at 1 µM (NEK6): 100%
- remaining binding at 1 µM (BRSK1): 100%
- remaining binding at 1 µM (TIE1): 0%
- remaining binding at 1 µM (ERBB2): 82%
- remaining binding at 1 µM (ALK(L1196M)): 9.9%
- remaining binding at 1 µM (TIE2): 0.1%
- remaining binding at 1 µM (EGFR(E746-A750del)): 29%
- remaining binding at 1 µM (LIMK2): 96%
- remaining binding at 1 µM (PRKD3): 100%
- remaining binding at 1 µM (WNK2): 72%
- remaining binding at 1 µM (ANKK1): 100%
- remaining binding at 1 µM (MKNK1): 76%
- remaining binding at 1 µM (CAMK2G): 94%
- remaining binding at 1 µM (TSSK1B): 96%
- remaining binding at 1 µM (BMPR1B): 84%
- remaining binding at 1 µM (FGFR1): 77%
- remaining binding at 1 µM (AURKA): 64%
- remaining binding at 1 µM [1]: 0.5%
- remaining binding at 1 µM (CSF1R): 0.05%
- remaining binding at 1 µM (MKNK2): 87%
- remaining binding at 1 µM (ULK2): 100%
- remaining binding at 1 µM (LYN): 0.55%
- remaining binding at 1 µM (PAK6): 95%
- remaining binding at 1 µM (ABL1-phosphorylated): 0.1%
- remaining binding at 1 µM (MTOR): 78%
- remaining binding at 1 µM (STK36): 66%
- remaining binding at 1 µM (PIK3CG): 99%
- remaining binding at 1 µM (TAOK2): 8.6%
- remaining binding at 1 µM (PDGFRB): 0%
- remaining binding at 1 µM (MARK4): 84%
- remaining binding at 1 µM (BMPR1A): 99%
- remaining binding at 1 µM (PIK3CA(1800L)): 100%
- remaining binding at 1 µM [2]: 19%

SMILES: CCN1CCN(Cc2cc(NC(=O)c3ccc(C)c(-c4ccc5nc(NC(=O)C6CC6)cn5c4)c3)cc(C(F)(F)F)c2)CC1 [Compound I-6, 3-(2-(cyclopropanecarboxamido)imidazo[1,2-a]pyridin-6-yl)-N-(3-((4-ethylpiperazin-1-yl)methyl)-5-(trifluoromethyl)phenyl)-4-methylbenzamide]
- remaining binding at 1 µM (CSNK1G1): 96%
- remaining binding at 1 µM (TAOK3): 0.9%
- remaining binding at 1 µM (SIK): 100%
- remaining binding at 1 µM (VPS34): 93%
- remaining binding at 1 µM (SgK110): 57%
- remaining binding at 1 µM (CIT): 0.35%
- remaining binding at 1 µM (NEK6): 100%
- remaining binding at 1 µM (BRSK1): 96%
- remaining binding at 1 µM (TIE1): 4%
- remaining binding at 1 µM (ERBB2): 71%
- remaining binding at 1 µM (ALK(L1196M)): 21%
- remaining binding at 1 µM (TIE2): 0.25%
- remaining binding at 1 µM (EGFR(E746-A750del)): 25%
- remaining binding at 1 µM (LIMK2): 100%
- remaining binding at 1 µM (PRKD3): 90%
- remaining binding at 1 µM (WNK2): 57%
- remaining binding at 1 µM (ANKK1): 100%
- remaining binding at 1 µM (MKNK1): 91%
- remaining binding at 1 µM (CAMK2G): 95%
- remaining binding at 1 µM (TSSK1B): 76%
- remaining binding at 1 µM (BMPR1B): 86%
- remaining binding at 1 µM (FGFR1): 57%
- remaining binding at 1 µM (AURKA): 94%
- remaining binding at 1 µM [1]: 0.65%
- remaining binding at 1 µM (CSF1R): 0%
- remaining binding at 1 µM (MKNK2): 82%
- remaining binding at 1 µM (ULK2): 100%
- remaining binding at 1 µM (LYN): 0.6%
- remaining binding at 1 µM (PAK6): 97%
- remaining binding at 1 µM (ABL1-phosphorylated): 0.1%
- remaining binding at 1 µM (MTOR): 91%
- remaining binding at 1 µM (STK36): 100%
- remaining binding at 1 µM (PIK3CG): 92%
- remaining binding at 1 µM (TAOK2): 7.6%
- remaining binding at 1 µM (PDGFRB): 0%
- remaining binding at 1 µM (MARK4): 80%
- remaining binding at 1 µM (BMPR1A): 92%
- remaining binding at 1 µM (PIK3CA(1800L)): 91%
- remaining binding at 1 µM [2]: 20%
